Measurements as given in PubChem BioAssay AID2060906 (Molecular Pharmacology Branch, DTP, NCI, 2025).

System: 485176-168-R4-J1-PDC complex spheroid growth
Test: Anticancer human tumor 485176-168-R4-J1-PDC patient-derived pancreatic adenocarcinoma cell line growth inhibition [RAS]
Conditions: for IC50: curve of first compound; for viability, T/C: stronger effect = lower value
In short: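 Tumour cells grown as complex spheroids with HUVEC endothelial cells and mesenchymal stem cells, treated with RAS pathway inhibitor combinations. Each agent spans half-log steps from near clinical Cmax, or 10 microM where Cmax is unknown.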

[1] = second compound 0.000949 µM, first compound 0.0316 µM
[2] = second compound 0.000949 µM, first compound 0.1 µM
[3] = second compound 0.000949 µM, first compound 0.316 µM
[4] = second compound 0.000949 µM, first compound 1 µM
[5] = second compound 0.000949 µM, first compound 3.16 µM
[6] = second compound 0.000949 µM, first compound 10 µM
[7] = second compound 0.003 µM, first compound 0.0316 µM
[8] = second compound 0.003 µM, first compound 0.1 µM
[9] = second compound 0.003 µM, first compound 0.316 µM
[10] = second compound 0.003 µM, first compound 1 µM
[11] = second compound 0.003 µM, first compound 3.16 µM
[12] = second compound 0.003 µM, first compound 10 µM
[13] = second compound 0.00949 µM, first compound 0.0316 µM
[14] = second compound 0.00949 µM, first compound 0.1 µM
[15] = second compound 0.00949 µM, first compound 0.316 µM
[16] = second compound 0.00949 µM, first compound 1 µM
[17] = second compound 0.00949 µM, first compound 3.16 µM
[18] = second compound 0.00949 µM, first compound 10 µM
[19] = second compound 0.03 µM, first compound 0.0316 µM
[20] = second compound 0.03 µM, first compound 0.1 µM
[21] = second compound 0.03 µM, first compound 0.316 µM
[22] = second compound 0.03 µM, first compound 1 µM
[23] = second compound 0.03 µM, first compound 3.16 µM
[24] = second compound 0.03 µM, first compound 10 µM
[25] = second compound 0.0949 µM, first compound 0.0316 µM
[26] = second compound 0.0949 µM, first compound 0.1 µM
[27] = second compound 0.0949 µM, first compound 0.316 µM
[28] = second compound 0.0949 µM, first compound 1 µM
[29] = second compound 0.0949 µM, first compound 3.16 µM
[30] = second compound 0.0949 µM, first compound 10 µM
[31] = second compound 0.3 µM, first compound 0.0316 µM
[32] = second compound 0.3 µM, first compound 0.1 µM
[33] = second compound 0.3 µM, first compound 0.316 µM
[34] = second compound 0.3 µM, first compound 1 µM
[35] = second compound 0.3 µM, first compound 3.16 µM
[36] = second compound 0.3 µM, first compound 10 µM
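Also: spheroids exposed to compounds for seven days before readout.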
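For viability, T/C in this document: luminescence viability expressed relative to DMSO vehicle wells set as 100%.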

In the case of `CC1(O)CCCC1n1c(=O)c(C(F)F)cc2cnc(NC3CCN(S(C)(=O)=O)CC3)nc21` (stereo unspecified) + CCn1c(-c2cc(N3CCN(C)CC3)cnc2C(C)OC)c2c3cc(ccc31)-c1csc(n1)CC(NC(=O)C1CC1C)C(=O)N1CCCC(N1)C(=O)OCC(C)(C)C2, the IC50 (second compound 0.000949 µM) is reported as 1.46 µM, the IC50 (second compound 0.003 µM) is reported as 3.44 µM and the IC50 (second compound 0.00949 µM) is reported as 1.72 µM. It also gave an IC50 (second compound 0.03 µM) of 1.66 µM, an IC50 (second compound 0.0949 µM) of 1.39 µM and an IC50 (second compound 0.3 µM) of 1.51 µM. For the same compound, the viability, T/C [1] was 81.1%, the viability, T/C [2] was 67.5% and the viability, T/C [3] was 63%. It also gave a viability, T/C [4] of 48.1%, a viability, T/C [5] of 48.4% and a viability, T/C [6] of 2.12%. The viability, T/C [7] was 73.9%, the viability, T/C [8] was 56% and the viability, T/C [9] was 71.5%. For the same compound, the viability, T/C [10] was 59.7%, the viability, T/C [11] was 54.9% and the viability, T/C [12] was 1.93%. The viability, T/C [13] was 78.6%, the viability, T/C [14] was 68.6% and the viability, T/C [15] was 60.8%. For the same compound, the viability, T/C [16] was 61.5%, the viability, T/C [17] was 41.5% and the viability, T/C [18] was 1.63%. It also gave a viability, T/C [19] of 63.7%, a viability, T/C [20] of 50.4% and a viability, T/C [21] of 56.6%. The viability, T/C [22] was 56%, the viability, T/C [23] was 43.1% and the viability, T/C [24] was 1.78%. For the same compound, the viability, T/C [25] was 59.4%, the viability, T/C [26] was 60.9% and the viability, T/C [27] was 51.3%. The viability, T/C [28] was 49.4%, the viability, T/C [29] was 44.7% and the viability, T/C [30] was 2.07%. The viability, T/C [31] was 75.7%, the viability, T/C [32] was 48.5% and the viability, T/C [33] was 44%. The viability, T/C [34] was 58.9%, the viability, T/C [35] was 43% and the viability, T/C [36] was 1.81%.

Compound `CCC(CC)c1cc(NC2CCC(N)C2)n2nccc2n1` (stereo unspecified) + CCn1c(-c2cc(N3CCN(C)CC3)cnc2C(C)OC)c2c3cc(ccc31)-c1csc(n1)CC(NC(=O)C1CC1C)C(=O)N1CCCC(N1)C(=O)OCC(C)(C)C2 has an IC50 (second compound 0.000949 µM) of 1.13 µM, an IC50 (second compound 0.003 µM) of 1.26 µM and an IC50 (second compound 0.00949 µM) of 1.07 µM. It also gave an IC50 (second compound 0.03 µM) of 0.925 µM, an IC50 (second compound 0.0949 µM) of 1.04 µM and an IC50 (second compound 0.3 µM) of 1 µM. The viability, T/C [1] was 92.1%, the viability, T/C [2] was 83.7% and the viability, T/C [3] was 84.7%. It also gave a viability, T/C [4] of 55.9%, a viability, T/C [5] of 1.96% and a viability, T/C [6] of 0.46%. For the same compound, the viability, T/C [7] was 94.5%, the viability, T/C [8] was 94.3% and the viability, T/C [9] was 100%. The viability, T/C [10] was 62.4%, the viability, T/C [11] was 1.91% and the viability, T/C [12] was 0.43%. For the same compound, the viability, T/C [13] was 106%, the viability, T/C [14] was 78.7% and the viability, T/C [15] was 89.1%. The viability, T/C [16] was 53.4%, the viability, T/C [17] was 1.09% and the viability, T/C [18] was 0.36%. It also gave a viability, T/C [19] of 83.6%, a viability, T/C [20] of 84.1% and a viability, T/C [21] of 82.8%. The viability, T/C [22] was 47.6%, the viability, T/C [23] was 1.14% and the viability, T/C [24] was 0.38%. For the same compound, the viability, T/C [25] was 77.5%, the viability, T/C [26] was 89% and the viability, T/C [27] was 68.5%. The viability, T/C [28] was 53%, the viability, T/C [29] was 0.88% and the viability, T/C [30] was 0.45%. It also gave a viability, T/C [31] of 81.4%, a viability, T/C [32] of 70% and a viability, T/C [33] of 71.7%. The viability, T/C [34] was 50.1%, the viability, T/C [35] was 0.86% and the viability, T/C [36] was 0.45%.

`CCN1CCN(Cc2ccc(Nc3ncc(F)c(-c4cc(F)c5nc(C)n(C(C)C)c5c4)n3)nc2)CC1` + CCn1c(-c2cc(N3CCN(C)CC3)cnc2C(C)OC)c2c3cc(ccc31)-c1csc(n1)CC(NC(=O)C1CC1C)C(=O)N1CCCC(N1)C(=O)OCC(C)(C)C2 was tested, and the IC50 (second compound 0.000949 µM) was greater than 1 µM, the IC50 (second compound 0.003 µM) was greater than 1 µM and the IC50 (second compound 0.00949 µM) was 0.756 µM. For the same compound, the IC50 (second compound 0.03 µM) was 0.938 µM, the IC50 (second compound 0.0949 µM) was 0.929 µM and the IC50 (second compound 0.3 µM) was greater than 1 µM. For the same compound, the viability, T/C (second compound 0.000949 µM, first compound 0.00316 µM) was 78.7%, the viability, T/C (second compound 0.000949 µM, first compound 0.01 µM) was 80.9% and the viability, T/C [1] was 81%. It also gave a viability, T/C [2] of 67.4%, a viability, T/C [3] of 73% and a viability, T/C [4] of 54.8%. It also gave a viability, T/C (second compound 0.003 µM, first compound 0.00316 µM) of 84.9%, a viability, T/C (second compound 0.003 µM, first compound 0.01 µM) of 76.5% and a viability, T/C [7] of 85.2%. The viability, T/C [8] was 66.9%, the viability, T/C [9] was 62.7% and the viability, T/C [10] was 53.8%. For the same compound, the viability, T/C (second compound 0.00949 µM, first compound 0.00316 µM) was 75.3%, the viability, T/C (second compound 0.00949 µM, first compound 0.01 µM) was 85.8% and the viability, T/C [13] was 73.4%. It also gave a viability, T/C [14] of 70.2%, a viability, T/C [15] of 63% and a viability, T/C [16] of 45.9%. For the same compound, the viability, T/C (second compound 0.03 µM, first compound 0.00316 µM) was 77.5%, the viability, T/C (second compound 0.03 µM, first compound 0.01 µM) was 68.1% and the viability, T/C [19] was 75.3%. The viability, T/C [20] was 58.3%, the viability, T/C [21] was 63.8% and the viability, T/C [22] was 47.9%. For the same compound, the viability, T/C (second compound 0.0949 µM, first compound 0.00316 µM) was 64.7%, the viability, T/C (second compound 0.0949 µM, first compound 0.01 µM) was 74.7% and the viability, T/C [25] was 59.2%. It also gave a viability, T/C [26] of 55.1%, a viability, T/C [27] of 51.6% and a viability, T/C [28] of 52%. The viability, T/C (second compound 0.3 µM, first compound 0.00316 µM) was 54.9%, the viability, T/C (second compound 0.3 µM, first compound 0.01 µM) was 76.6% and the viability, T/C [31] was 70.9%. For the same compound, the viability, T/C [32] was 65.3%, the viability, T/C [33] was 53.5% and the viability, T/C [34] was 51%.
